Test results published in ChEMBL document CHEMBL1201862, “PubChem BioAssay data set” (2004).
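The compound was tested at five concentrations on cells cultured in 96-well plates, with a 48-hour exposure period. The concentration for 50% growth inhibition is given as GI50.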 The source made the active and inactive calls. Cut-off read from the data, not from the text of the source: active = GI50 up to about 1.1 µM and inactive = higher. Peptide text beside a SMILES is read from it. * marks the point of attachment. Cbz = O=C(OCc1ccccc1)*

Experiments:
Assay in all cases: NCI tumour cell line growth inhibition, 48 h
SF-268 = test system: SF-268
T47D = test system: T47D
LOX IMVI = test system: LOX IMVI
NCI-H226 = test system: NCI-H226
K562 = test system: K562
SW-620 = test system: SW-620
OVCAR-4 = test system: OVCAR-4
MDA-MB-231 = test system: MDA-MB-231
HOP-92 = test system: HOP-92
HL-60 = test system: HL-60
RXF 393 = test system: RXF 393
MOLT-4 = test system: MOLT-4
U-251 = test system: U-251
NCI-H23 = test system: NCI-H23
COLO 205 = test system: COLO 205
SN12C = test system: SN12C
DU-145 = test system: DU-145
ACHN = test system: ACHN
HCT-116 = test system: HCT-116
PC-3 = test system: PC-3

Measured: GI50

Brc1ccc(/N=C/C=C(\Nc2ccc(Br)cc2)C23CC4CC(CC(C4)C2)C3)cc1
inactive: SF-268 10.2 µM | T47D 8.07 µM | LOX IMVI 1.91 µM | NCI-H226 97.3 µM | K562 4.5 µM | SW-620 18.1 µM | OVCAR-4 12.7 µM | MDA-MB-231 15.6 µM | HOP-92 13.6 µM | HL-60 2.95 µM | RXF 393 14.7 µM | MOLT-4 6.07 µM | U-251 14.4 µM | NCI-H23 16.9 µM | COLO 205 9.62 µM | SN12C 20.6 µM | DU-145 14.5 µM | ACHN 11.1 µM | HCT-116 9.04 µM | PC-3 16.1 µM

C=C1c2nc3ccccc3n2C=C(c2ccc(C)cc2)N1c1ccc(C)cc1
inactive: SF-268 > 100 µM | T47D > 100 µM | LOX IMVI 34.8 µM | NCI-H226 7.08 µM | K562 19.9 µM | SW-620 36.8 µM | OVCAR-4 69.5 µM | MDA-MB-231 > 83.4 µM | HOP-92 68.5 µM | HL-60 10.5 µM | RXF 393 25.9 µM | MOLT-4 31.6 µM | U-251 86.3 µM | NCI-H23 > 59.6 µM | COLO 205 28.8 µM | SN12C > 100 µM | DU-145 > 83.4 µM | ACHN > 78 µM | HCT-116 43.7 µM | PC-3 28.6 µM

Nc1ccc(/N=N\c2ccc(-c3ccc(O)cc3)cc2)c2ccc(S(=O)(=O)O)cc12
inactive: SF-268 > 100 µM | T47D > 100 µM | LOX IMVI > 100 µM | NCI-H226 > 100 µM | K562 > 100 µM | SW-620 > 100 µM | OVCAR-4 > 100 µM | MDA-MB-231 > 100 µM | HOP-92 > 100 µM | HL-60 > 100 µM | RXF 393 > 100 µM | MOLT-4 > 100 µM | U-251 > 100 µM | NCI-H23 > 100 µM | COLO 205 > 100 µM | SN12C > 100 µM | DU-145 > 100 µM | ACHN > 100 µM | HCT-116 > 100 µM | PC-3 > 100 µM

CCOC(=O)C(C)NC(=O)C(C)NC(=O)C(C)NC(=O)C(C)NC(=O)C(C)NC(=O)C(C)NC(=O)C(C)NC(=O)OCc1ccccc1 (stereo not given) (Cbz-AAAAAAA-OEt; configuration not given here)
inactive: SF-268 > 100 µM | T47D > 100 µM | LOX IMVI > 100 µM | NCI-H226 > 100 µM | K562 > 100 µM | SW-620 > 100 µM | OVCAR-4 > 100 µM | MDA-MB-231 > 100 µM | HOP-92 > 100 µM | HL-60 > 100 µM | RXF 393 > 100 µM | MOLT-4 > 100 µM | U-251 > 100 µM | NCI-H23 > 100 µM | COLO 205 > 100 µM | SN12C > 100 µM | DU-145 > 100 µM | ACHN > 100 µM | HCT-116 > 100 µM | PC-3 > 100 µM
